Among the test systems are ACHN renal; MDA-MB-435; NCI/ADR-RES ovarian; OVCAR-3 ovarian; OVCAR-5 ovarian; SK-OV-3 ovarian; U251 CNS; UACC-62 melanoma; UO-31 renal; SK-MEL-28 melanoma.
Test in all cases: growth of human tumour cells (NCI), 48 h

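48-hour exposure; five concentrations; linearly interpolated endpoints. Abbreviation: GI50, concentration required for 50% inhibition of growth. TGI marks complete inhibition of growth.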

Take `COc1ccccc1/C=C\C(=O)c1ccccc1`: the GI50 in the test on ACHN renal is 5.4 µM; in the test with MDA-MB-435, 4.27 µM; with NCI/ADR-RES ovarian it was 4.38 µM; in the test with OVCAR-3 ovarian it was 7.43 µM; in the test with OVCAR-5 ovarian it was 17.7 µM; with SK-OV-3 ovarian, 13.7 µM. Further, the values for the GI50 in the test with U251 CNS, with UACC-62 melanoma and with UO-31 renal were 4.25 µM, 5.57 µM and 4.58 µM, respectively. Also, the TGI with ACHN renal amounted to 17.5 µM; with MDA-MB-435, 16.5 µM; in the test on NCI/ADR-RES ovarian, 24.3 µM; in the test on OVCAR-3 ovarian, 19.3 µM; with OVCAR-5 ovarian it was 32.5 µM; in the test on SK-OV-3 ovarian, 26.5 µM. The TGI in the test on U251 CNS is 16.8 µM; with UACC-62 melanoma, 18.7 µM; in the test on UO-31 renal, 17.3 µM.
As to `COc1cc([C@H]2c3[nH]c4ccccc4c3C[C@H]3COC(=O)N32)cc(OC)c1O`, the TGI with ACHN renal was 28.5 µM; in the test on MDA-MB-435, over 100 µM; in the test with NCI/ADR-RES ovarian, over 100 µM; with OVCAR-5 ovarian, over 100 µM; with SK-MEL-28 melanoma, over 80 µM; in the test with U251 CNS, 19 µM. For the same molecule, the TGI in the test on UACC-62 melanoma was found to be 43.4 µM; in the test on UO-31 renal, 29.7 µM.
`COc1ccc2c(c1)nc1n2C(c2ccc(F)cc2)SC1` (stereo not drawn): the GI50 with ACHN renal was 20.8 µM; in the test with MDA-MB-435 it was 21.8 µM; in the test on NCI/ADR-RES ovarian it was 20.7 µM; in the test on OVCAR-3 ovarian it was 22.6 µM; in the test on OVCAR-5 ovarian, 33.6 µM; with SK-OV-3 ovarian it was 22.4 µM. Further, the values for the GI50 in the test on U251 CNS, in the test with UACC-62 melanoma and in the test on UO-31 renal were 27.9 µM, 16.6 µM and 23.5 µM, respectively. For the same molecule, the TGI in the test on ACHN renal was 47.3 µM; in the test with MDA-MB-435, 59.5 µM; in the test on NCI/ADR-RES ovarian, 45.8 µM; in the test on OVCAR-3 ovarian it was 65.4 µM; with OVCAR-5 ovarian it was over 100 µM; in the test on SK-OV-3 ovarian, over 100 µM. Further, the TGI with U251 CNS turned out to be 83.7 µM; with UACC-62 melanoma, 34.9 µM; in the test on UO-31 renal, 67.9 µM.
Turning to `COc1ccc(/C=C/C(=O)C(C)(C)Br)cc1`, the TGI was 25.7 µM with ACHN renal; 34.3 µM in the test on MDA-MB-435; over 100 µM in the test with NCI/ADR-RES ovarian; 35 µM in the test on OVCAR-3 ovarian; 28.1 µM in the test on OVCAR-5 ovarian; 63.1 µM in the test with SK-OV-3 ovarian. For the same molecule, the TGI is 28.6 µM in the test with U251 CNS, 27.1 µM with UACC-62 melanoma and 16.6 µM in the test on UO-31 renal.
For the molecule `C/C(=N\n1c(N)c(C#N)c(-c2ccc(Cl)cc2)c(C#N)c1=O)c1ccncc1`, the GI50 in the test with ACHN renal was 20.9 µM; with NCI/ADR-RES ovarian, 5.28 µM; with OVCAR-3 ovarian it was 3.7 µM; in the test with OVCAR-5 ovarian it was 60.4 µM; in the test with SK-MEL-28 melanoma it was 56.8 µM; in the test on SK-OV-3 ovarian, 10.1 µM. Besides, the GI50 in the test on U251 CNS was 19.6 µM; in the test with UACC-62 melanoma, 36.4 µM; in the test on UO-31 renal it was 7.33 µM. The TGI is 49.5 µM with ACHN renal; 31.3 µM in the test on NCI/ADR-RES ovarian; 21.5 µM in the test with OVCAR-3 ovarian; over 100 µM in the test with OVCAR-5 ovarian; over 100 µM in the test with SK-MEL-28 melanoma; 64.6 µM in the test with SK-OV-3 ovarian. Further, the TGI was 44.6 µM in the test with U251 CNS, over 100 µM in the test with UACC-62 melanoma and over 100 µM in the test on UO-31 renal.
Turning to `COc1ccc(C2ONC3=NCCN32)cc1` (stereo not drawn), the GI50 with ACHN renal was 37.1 µM; in the test on MDA-MB-435, over 100 µM; in the test on NCI/ADR-RES ovarian, 40.4 µM; with OVCAR-3 ovarian it was 35.2 µM; with OVCAR-5 ovarian, over 100 µM; in the test with SK-MEL-28 melanoma it was over 100 µM. The GI50 is 40.7 µM in the test with SK-OV-3 ovarian, 45 µM in the test on U251 CNS and 67.3 µM in the test with UACC-62 melanoma. The TGI in the test with ACHN renal, in the test with MDA-MB-435, in the test on NCI/ADR-RES ovarian, in the test on OVCAR-3 ovarian, in the test with OVCAR-5 ovarian and in the test with SK-MEL-28 melanoma was over 100 µM throughout. Besides, the TGI in the test with SK-OV-3 ovarian, with U251 CNS and in the test with UACC-62 melanoma was over 100 µM each time.
For `CCCCCCCCCCCCCCCCS(=O)(=O)c1ccc(NN)cc1`, the TGI in the test with ACHN renal, with MDA-MB-435, in the test on NCI/ADR-RES ovarian, in the test with OVCAR-3 ovarian, in the test with OVCAR-5 ovarian and in the test with SK-MEL-28 melanoma was over 10 µM in each case. The TGI in the test with SK-OV-3 ovarian, with U251 CNS and with UACC-62 melanoma was over 10 µM throughout.
For `O=C(Nc1ccc(Cl)cc1)Nc1ccccc1CNc1nc(Nc2ccc(OCCN3CCCC3)cc2)ncc1Cl`, the GI50 in the test on ACHN renal was 0.929 µM; with MDA-MB-435 it was 0.935 µM; in the test on NCI/ADR-RES ovarian it was 1.16 µM; with OVCAR-3 ovarian, 0.935 µM; with OVCAR-5 ovarian, 1.1 µM; with SK-MEL-28 melanoma, 0.855 µM. The figures for the GI50 with UACC-62 melanoma and in the test on UO-31 renal were 0.903 µM and 0.782 µM, respectively. Further, the TGI amounted to 1.78 µM with ACHN renal; 1.93 µM in the test on MDA-MB-435; 2.64 µM in the test with NCI/ADR-RES ovarian; 1.71 µM with OVCAR-3 ovarian; 2.7 µM with OVCAR-5 ovarian; 1.58 µM in the test on SK-MEL-28 melanoma. Also, the TGI was determined as 1.78 µM in the test on UACC-62 melanoma and 1.59 µM in the test on UO-31 renal.
For the molecule `CCOCNc1ccc(N2C(=O)/C(=C/c3ccc(N(CC)CC)cc3)N=C2c2ccccc2)cc1`, the GI50 is 17.5 µM in the test on ACHN renal; 69.1 µM with MDA-MB-435; 33.9 µM in the test on NCI/ADR-RES ovarian; 28.3 µM with OVCAR-3 ovarian; over 100 µM in the test with OVCAR-5 ovarian; over 100 µM with SK-MEL-28 melanoma. Besides, the GI50 is 26.1 µM in the test with SK-OV-3 ovarian, 3.85 µM in the test with U251 CNS and 3.93 µM in the test with UACC-62 melanoma. Moreover, the TGI with ACHN renal, with MDA-MB-435, with NCI/ADR-RES ovarian, in the test with OVCAR-3 ovarian, with OVCAR-5 ovarian and with SK-MEL-28 melanoma was over 100 µM throughout. In addition, the TGI in the test with SK-OV-3 ovarian stood at 82.9 µM; with U251 CNS, 33 µM; in the test on UACC-62 melanoma it was 37.1 µM.
Turning to `c1cnc2[nH]cc(-c3csc(-c4cn(CCCN5CCCCC5)c5ccccc45)n3)c2c1`, the GI50 with ACHN renal was 1.66 µM; in the test on MDA-MB-435, 1.67 µM; in the test on OVCAR-3 ovarian it was 1.54 µM; in the test with OVCAR-5 ovarian it was 1.63 µM; in the test with SK-OV-3 ovarian, 1.8 µM; in the test with U251 CNS, 1.8 µM. Also, the GI50 with UACC-62 melanoma is 1.7 µM; in the test with UO-31 renal it was 1.18 µM. Further, the TGI in the test on ACHN renal was found to be 3.05 µM; with MDA-MB-435 it was 3.09 µM; in the test with OVCAR-3 ovarian, 2.96 µM; with OVCAR-5 ovarian, 3.11 µM; in the test with SK-OV-3 ovarian, 3.36 µM; in the test on U251 CNS, 3.28 µM. Besides, the TGI was found to be 3.3 µM in the test with UACC-62 melanoma and 2.5 µM in the test on UO-31 renal.

These data come from PubChem BioAssay (NCI).
